Read-outs that look alike come from different tables or passages of the source.
What was measured:
[1] = target: T1, hα3β4 AChR (Homo sapiens, UniProt P30926+P32297); assay: cell-based; format: cell-based
[2] = system: rat α3β4 AChRs; details: 86Rb+ efflux, rat α3β4 AChRs ref Hernandez et al., 2000; cited from earlier work
[3] = target: T1, hα3β4 AChR; format: binding; details: for nH: radioligand [3H]ibogaine
[4] = target: T1, hα3β4 AChR; format: binding; details: for nH: radioligand [3H]TCP
[5] = target: T1, hα3β4 AChR; assay: Binding kinetics by non-linear chromatography on the CMAC-hα3β4 AChR column
[6] = target: T1, hα3β4 AChR; format: binding; details: for ΔG^20: 293 K; for Ea (energy of activation of the dissociation process): Arrhenius plot; for ΔH°: van't Hoff plot
[7] = target: T1, hα3β4 AChR; assay: Equilibrium binding of [3H]ibogaine to hα3β4 AChR membranes
[8] = AChR in the resting state (κ-BTx), 20 °C
[9] = Epibatidine treated column (desensitized state)
[10] = κ-BTx treated column (resting state)
[11] = Desensitized state (1 µM (−)-nicotine)

T1 sequence (P32297 32-505): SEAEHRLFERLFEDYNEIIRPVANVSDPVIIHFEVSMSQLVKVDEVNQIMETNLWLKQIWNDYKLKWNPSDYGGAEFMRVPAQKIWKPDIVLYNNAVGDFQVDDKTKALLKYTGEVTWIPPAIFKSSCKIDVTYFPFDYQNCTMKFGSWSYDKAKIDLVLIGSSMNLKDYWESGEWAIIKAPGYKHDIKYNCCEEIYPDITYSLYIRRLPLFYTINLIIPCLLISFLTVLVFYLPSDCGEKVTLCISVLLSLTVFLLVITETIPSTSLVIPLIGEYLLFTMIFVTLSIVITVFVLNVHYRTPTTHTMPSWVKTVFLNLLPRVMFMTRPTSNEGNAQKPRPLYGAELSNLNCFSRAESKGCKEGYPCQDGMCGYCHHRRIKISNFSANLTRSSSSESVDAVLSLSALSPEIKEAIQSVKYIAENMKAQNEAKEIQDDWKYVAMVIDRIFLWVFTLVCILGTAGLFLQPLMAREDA
T1 sequence (P30926 22-498): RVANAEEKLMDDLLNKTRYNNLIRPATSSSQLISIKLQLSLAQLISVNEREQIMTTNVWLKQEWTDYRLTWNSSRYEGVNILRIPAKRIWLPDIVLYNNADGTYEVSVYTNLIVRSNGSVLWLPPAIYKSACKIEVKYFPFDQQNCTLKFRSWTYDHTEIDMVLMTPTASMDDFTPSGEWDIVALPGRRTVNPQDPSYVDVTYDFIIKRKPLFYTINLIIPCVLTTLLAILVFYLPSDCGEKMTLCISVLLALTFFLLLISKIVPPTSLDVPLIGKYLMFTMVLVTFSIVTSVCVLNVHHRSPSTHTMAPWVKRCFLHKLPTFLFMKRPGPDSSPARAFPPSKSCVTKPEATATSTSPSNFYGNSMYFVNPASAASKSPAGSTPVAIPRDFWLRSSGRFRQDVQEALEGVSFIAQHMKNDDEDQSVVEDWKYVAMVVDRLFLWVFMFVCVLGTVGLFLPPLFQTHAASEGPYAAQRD

c1ccc(C2(N3CCCCC3)CCCCC2)cc1 [PCP, phencyclidine]
IC50 [1]: 8.5 ± 1.4 µM | fold higher inhibitory potency in the hα3β4 AChR than in the muscle AChR ([1]; compared with muscle AChR value of ref Fryer and Lukas, 1999): ~ 2 fold | nH (Hill coefficient) ([1]; inhibition of (±)-epibatidine-induced Ca2+ influx, HEK293-hα3β4 cells): 0.92 ± 0.02 | IC50 [2]: 7 ± 1.3 µM | Ki [3]: 17 ± 2 µM | nH ([3]; Resting state): 0.88 ± 0.07 | times lower affinity compared to ibogaine ([3]; resting hα3β4 AChR, Table 2 values): 10–16 times | Ki [4]: 10 ± 2 µM | nH ([4]; Resting state): 0.87 ± 0.10

Clc1ccc(C2CC3CCC2N3)cn1 (racemic) [(±)-epibatidine, (±)-Epibatidine]
nH (Hill coefficient) ([1]; activation of the hα3β4 AChR, Ca2+ influx): 1.21 ± 0.06

7-ethyl-6,2,7,8,9,10,12,13-octahydro-2-methoxy-6,9-methano 5H-pyrido(1′,2′:1,2-azepine (4,5-)indole) [Ibogaine]
koff [5]: 0.078 ± 0.002 s⁻¹ | kon [5]: 0.30 ± 0.01 s⁻¹ µM⁻¹ | ΔG [5]: -36.9 ± 0.1 kJ/mol | Ka (association constant) [5, 8]: 3.47 ± 0.12 µM⁻¹ | koff [5, 8]: 0.088 ± 0.001 s⁻¹ | kon ([5]; AChR in the resting state (κ-BTx), kon = koff·Ka): 0.31 ± 0.02 s⁻¹ µM⁻¹ | association rate constants kon (order of magnitude) ([5]; both conformational states): ~ 10^5 M^−1 s^−1 | nH (Hill coefficient) [1]: 1.24 ± 0.07 | fold higher potency than PCP in inhibiting (±)-epibatidine-induced Ca2+ influx ([1]; ibogaine IC50 versus PCP IC50): ~ 9 fold | ΔH^+ (enthalpy change of the transition state) [6, 9]: 12.7 ± 1.8 kJmol^−1 | −TΔS° [6, 9]: −29.4 ± 0.3 kJmol-^1 | ΔG^20 [6, 9]: −37.0 ± 0.1 kJmol^−1 | Ea (energy of activation of the dissociation process) [6, 9]: 15.1 ± 1.8 kJmol^−1 | ΔH° [6, 9]: -7.6 ± 0.3 kJ/mol | ΔH^+ (enthalpy change of the transition state) [6, 10]: 11.2 ± 0.7 kJmol^−1 | −TΔS° [6, 10]: −26.2 ± 0.7 kJmol-^1 | ΔG^20 [6, 10]: −36.7 ± 0.1 kJmol^−1 | Ea (energy of activation of the dissociation process) [6, 10]: 13.7 ± 0.7 kJmol^−1 | ΔH° [6, 10]: -10.5 ± 0.7 kJ/mol | nH [3, 11]: 1.01 ±0.11 | nH ([3]; Resting state): 0.82 ± 0.08 | fold higher affinity for desensitized/nicotine-bound than resting/no ligand AChR ([3]; [3H]ibogaine competition, p < 0.05): ~ 2.8 fold | nH [4, 11]: 0.95 ±0.13 | nH ([4]; Resting state): 0.79 ± 0.13 | fold higher affinity for desensitized than resting AChR ([4]; [3H]TCP competition): ~ 2.6 fold

[^3H]ibogaine
specific activity (number of binding sites, Bmax) ([7]; HEK293-hα3β4 membranes, x-intersect of Scatchard plot): 3.9 ± 0.4 pmol/mg protein | Kd ([7]; resting (no ligand) state, Rosenthal-Scatchard plot): 460 ± 60 nM

Source: article PMC4609575 (The international journal of biochemistry & cell biology, 2010)
